# Test results taken from ChEMBL document CHEMBL1268938, “Identification of a red-emitting fluorescent ligand for in vitro visualization of human serotonin 5-HT(1A) receptors” (Bioorg Med Chem Lett, 2010).
# Biological target: T1, 5-hydroxytryptamine receptor 1A (Homo sapiens, UniProt P08908)
# T1 sequence (P08908 whole entry): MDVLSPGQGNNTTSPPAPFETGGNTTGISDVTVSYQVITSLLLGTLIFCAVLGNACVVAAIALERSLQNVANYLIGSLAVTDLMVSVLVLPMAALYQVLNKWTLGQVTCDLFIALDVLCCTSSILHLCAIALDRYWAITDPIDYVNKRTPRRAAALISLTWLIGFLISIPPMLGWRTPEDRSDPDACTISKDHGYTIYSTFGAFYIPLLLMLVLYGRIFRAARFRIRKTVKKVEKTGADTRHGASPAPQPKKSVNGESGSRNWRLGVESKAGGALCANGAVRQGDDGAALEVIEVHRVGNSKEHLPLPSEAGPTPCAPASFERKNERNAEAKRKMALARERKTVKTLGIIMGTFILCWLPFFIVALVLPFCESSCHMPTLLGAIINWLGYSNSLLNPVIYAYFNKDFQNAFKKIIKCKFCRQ
# Assay: Displacement of [3H]8-OH-DPAT from human cloned 5HT1A receptor expressed in HEK293 cells
# Assay type: cell-based
row,SMILES,Ki
1,CCCCCN1CCN(c2ccccc2OC)CC1,5.16 nM
2,CCN(CC)c1ccc2cc(/C=C/C3=[N+](CCCCCC(=O)Oc4cccc(CCN5CCN(c6ccccc6OC)CC5)c4)c4ccccc4C3(C)C)c(=O)oc2c1,35 nM
3,COc1ccccc1N1CCN(CCc2cccc(OCCCCCOc3cccc(CCN4CCN(c5ccccc5OC)CC4)c3)c2)CC1,1.7 nM
4,COc1ccccc1N1CCN(CCCCCNC(=O)c2ccc(SC3=C(/C=C/C4=[N+](CCCCS(=O)(=O)[O-])c5ccccc5C4(C)C)CCC/C3=C\C=C3\N(CCCCS(=O)(=O)O)c4ccccc4C3(C)C)cc2)CC1,65.8 nM
5,COc1cccc(CCN2CCN(c3ccccc3OC)CC2)c1,2.4 nM
